# Data from PubChem BioAssay (NCI).
#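 Results reflect a 48-hour exposure of cells in 96-well plates to compound at five concentrations. At the GI50, growth is halved. Definition used: TGI = concentration required for complete inhibition of growth.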
# Key:
# Assay in all cases: growth of human tumour cells (NCI), 48 h
# PC-3 prostate = test system: PC-3 prostate
# HL-60(TB) leukemia = test system: HL-60(TB) leukemia
# HOP-62 NSCLC = test system: HOP-62 NSCLC
# BT-549 breast = test system: BT-549 breast
# NCI-H226 lung = test system: NCI-H226 lung
# COLO 205 colon = test system: COLO 205 colon
# ACHN renal = test system: ACHN renal
# SK-OV-3 ovarian = test system: SK-OV-3 ovarian
# SN12C renal = test system: SN12C renal
# OVCAR-3 ovarian = test system: OVCAR-3 ovarian
# NCI/ADR-RES ovarian = test system: NCI/ADR-RES ovarian
# MOLT-4 leukemia = test system: MOLT-4 leukemia
# OVCAR-4 ovarian = test system: OVCAR-4 ovarian
# EKVX NSCLC = test system: EKVX NSCLC
# LOX IMVI melanoma = test system: LOX IMVI melanoma
# T-47D breast = test system: T-47D breast
# RPMI-8226 leukemia = test system: RPMI-8226 leukemia
# HT29 colon = test system: HT29 colon
# KM12 colon = test system: KM12 colon
# A498 renal = test system: A498 renal
# UACC-62 melanoma = test system: UACC-62 melanoma
# IGROV1 ovarian = test system: IGROV1 ovarian
# MDA-MB-231 breast = test system: MDA-MB-231 breast
# OVCAR-8 ovarian = test system: OVCAR-8 ovarian
# CCRF-CEM leukemia = test system: CCRF-CEM leukemia
# HCC-2998 colon = test system: HCC-2998 colon
# NCI-H23 lung = test system: NCI-H23 lung
# NCI-H522 lung = test system: NCI-H522 lung
# CAKI-1 renal = test system: CAKI-1 renal
# SF-539 CNS = test system: SF-539 CNS
# SF-268 CNS = test system: SF-268 CNS
# SF-295 CNS = test system: SF-295 CNS
# SK-MEL-28 melanoma = test system: SK-MEL-28 melanoma
# HS 578T breast = test system: HS 578T breast
# HOP-92 NSCLC = test system: HOP-92 NSCLC
# K-562 leukemia = test system: K-562 leukemia
# SNB-75 CNS = test system: SNB-75 CNS
# SW-620 colon = test system: SW-620 colon
# MALME-3M melanoma = test system: MALME-3M melanoma
# U251 CNS = test system: U251 CNS
# HCT-15 colon = test system: HCT-15 colon
# MDA-MB-435 = test system: MDA-MB-435
# UO-31 renal = test system: UO-31 renal
# A549 NSCLC = test system: A549 NSCLC
# MCF7 breast = test system: MCF7 breast
# 786-0 renal = test system: 786-0 renal
# SK-MEL-2 melanoma = test system: SK-MEL-2 melanoma
# TK-10 renal = test system: TK-10 renal
# SNB-19 CNS = test system: SNB-19 CNS
# HCT-116 colon = test system: HCT-116 colon
# NCI-H460 lung = test system: NCI-H460 lung
# DU-145 prostate = test system: DU-145 prostate
# UACC-257 melanoma = test system: UACC-257 melanoma
# SR leukemia = test system: SR leukemia
# M14 melanoma = test system: M14 melanoma
# OVCAR-5 ovarian = test system: OVCAR-5 ovarian
# SK-MEL-5 melanoma = test system: SK-MEL-5 melanoma
compound,measurement,setting,value
Oc1cccc(-c2nc(-c3n[nH]c(=S)n3-c3ccccc3)cc3c2[nH]c2ccccc23)c1,GI50,PC-3 prostate,2630 nM
same,TGI,PC-3 prostate,10.9 µM
same,GI50,HL-60(TB) leukemia,3.38 µM
same,TGI,HL-60(TB) leukemia,8.98 µM
same,GI50,HOP-62 NSCLC,2240 nM
same,TGI,HOP-62 NSCLC,7.96 µM
same,GI50,BT-549 breast,2670 nM
same,TGI,BT-549 breast,6.8 µM
same,GI50,NCI-H226 lung,3.92 µM
same,TGI,NCI-H226 lung,18.6 µM
same,GI50,COLO 205 colon,2450 nM
same,TGI,COLO 205 colon,7.22 µM
same,GI50,ACHN renal,3.95 µM
same,TGI,ACHN renal,14.6 µM
same,GI50,SK-OV-3 ovarian,3.02 µM
same,TGI,SK-OV-3 ovarian,8.72 µM
same,GI50,SN12C renal,4.03 µM
same,TGI,SN12C renal,15.5 µM
same,GI50,OVCAR-3 ovarian,2180 nM
same,TGI,OVCAR-3 ovarian,5.73 µM
same,GI50,NCI/ADR-RES ovarian,13.2 µM
same,TGI,NCI/ADR-RES ovarian,69.7 µM
same,GI50,MOLT-4 leukemia,3.78 µM
same,TGI,MOLT-4 leukemia,14 µM
same,GI50,OVCAR-4 ovarian,3.79 µM
same,TGI,OVCAR-4 ovarian,17.3 µM
same,GI50,EKVX NSCLC,4 µM
same,TGI,EKVX NSCLC,23.4 µM
same,GI50,LOX IMVI melanoma,1800 nM
same,TGI,LOX IMVI melanoma,3.83 µM
same,GI50,T-47D breast,2140 nM
same,TGI,T-47D breast,8.18 µM
same,GI50,RPMI-8226 leukemia,2690 nM
same,TGI,RPMI-8226 leukemia,7.86 µM
same,GI50,HT29 colon,2550 nM
same,TGI,HT29 colon,6.18 µM
same,GI50,KM12 colon,3.15 µM
same,TGI,KM12 colon,11.7 µM
same,GI50,A498 renal,2150 nM
same,TGI,A498 renal,5.8 µM
same,GI50,UACC-62 melanoma,2400 nM
same,TGI,UACC-62 melanoma,8.77 µM
same,GI50,IGROV1 ovarian,2290 nM
same,TGI,IGROV1 ovarian,11.2 µM
same,GI50,MDA-MB-231 breast,3.19 µM
same,TGI,MDA-MB-231 breast,13 µM
same,GI50,OVCAR-8 ovarian,3.09 µM
same,TGI,OVCAR-8 ovarian,8.83 µM
same,GI50,CCRF-CEM leukemia,3.85 µM
same,TGI,CCRF-CEM leukemia,18.7 µM
same,GI50,HCC-2998 colon,2170 nM
same,TGI,HCC-2998 colon,4.53 µM
same,GI50,NCI-H23 lung,3.97 µM
same,TGI,NCI-H23 lung,19.7 µM
same,GI50,NCI-H522 lung,1800 nM
same,TGI,NCI-H522 lung,4.98 µM
same,GI50,CAKI-1 renal,2810 nM
same,TGI,CAKI-1 renal,11.9 µM
same,GI50,SF-539 CNS,1800 nM
same,TGI,SF-539 CNS,3.96 µM
same,GI50,SF-268 CNS,3.56 µM
same,TGI,SF-268 CNS,14.7 µM
same,GI50,SF-295 CNS,2160 nM
same,TGI,SF-295 CNS,5.75 µM
same,GI50,SK-MEL-28 melanoma,1810 nM
same,TGI,SK-MEL-28 melanoma,7.28 µM
same,GI50,HS 578T breast,3.43 µM
same,TGI,HS 578T breast,24.6 µM
same,GI50,HOP-92 NSCLC,4.31 µM
same,TGI,HOP-92 NSCLC,18.1 µM
same,GI50,K-562 leukemia,3.16 µM
same,TGI,K-562 leukemia,21.6 µM
same,GI50,SNB-75 CNS,1720 nM
same,TGI,SNB-75 CNS,5.89 µM
same,GI50,SW-620 colon,3.63 µM
same,TGI,SW-620 colon,11.9 µM
same,GI50,MALME-3M melanoma,4.05 µM
same,TGI,MALME-3M melanoma,17.4 µM
same,GI50,U251 CNS,2980 nM
same,TGI,U251 CNS,11 µM
same,GI50,HCT-15 colon,2880 nM
same,TGI,HCT-15 colon,10.9 µM
same,GI50,MDA-MB-435,1260 nM
same,TGI,MDA-MB-435,4.5 µM
same,GI50,UO-31 renal,2090 nM
same,TGI,UO-31 renal,11.7 µM
same,GI50,A549 NSCLC,2890 nM
same,TGI,A549 NSCLC,11.1 µM
same,GI50,MCF7 breast,3.37 µM
same,TGI,MCF7 breast,13.6 µM
same,GI50,786-0 renal,3.19 µM
same,TGI,786-0 renal,11 µM
same,GI50,SK-MEL-2 melanoma,1880 nM
same,TGI,SK-MEL-2 melanoma,6.08 µM
same,GI50,TK-10 renal,4.08 µM
same,TGI,TK-10 renal,16.3 µM
same,GI50,SNB-19 CNS,3.11 µM
same,TGI,SNB-19 CNS,11.4 µM
same,GI50,HCT-116 colon,3.28 µM
same,TGI,HCT-116 colon,9.82 µM
same,GI50,NCI-H460 lung,3.1 µM
same,TGI,NCI-H460 lung,9.5 µM
same,GI50,DU-145 prostate,2570 nM
same,TGI,DU-145 prostate,7.02 µM
same,GI50,UACC-257 melanoma,3.22 µM
same,TGI,UACC-257 melanoma,9.88 µM
same,GI50,SR leukemia,3.07 µM
same,TGI,SR leukemia,> 100 µM
same,GI50,M14 melanoma,2720 nM
same,TGI,M14 melanoma,10.3 µM
same,GI50,OVCAR-5 ovarian,4.38 µM
same,TGI,OVCAR-5 ovarian,15.7 µM
same,GI50,SK-MEL-5 melanoma,3.15 µM
same,TGI,SK-MEL-5 melanoma,11 µM
